Measurements taken from patent US9315544B2, “Method of treating eosinophilia by administering an immunomodulating peptide” (National Tsing Hua University, priority 2012, dated 2016).

What was measured:
goblet cell hyperplasia = test: Lung histopathology (PAS), goblet cell hyperplasia score; type: in vivo, BALB/c mouse; conditions: eIN+mIT+eIN group (CMP days 1 to 22)
From the text: (§1) FIG. 4 illustrates experimental design. All groups except control group were immunized with mite crude extract allergen on days 1 and 8, then mite crude extract allergen intratracheally on day 15 in all mite treated group, BALB/c mouse were divided into six groups (1) control group (PBS), (2) mites delivered intratracheally (mIT, mite on day 15) alone, (3) CMP intranasal (eIN, CMP on days 1 to 22) alone, (4) preventive-treatment group (eIN+mIT, CMP on days 1 to 14, mite on day 15) (5) therapy-treatment group (mIT+eIN, mite on day 15, CMP on days 15 to 22), and (6) preventive- and therapeutic-treatment group (eIN+mIT+eIN, CMP on days 1 to 22, mite on day 15).
FIG. 6A-6B illustrates inhibitory effect of CMP on influx of inflammatory cells. […] (A) Scores for peri-bronchiolar, alveolar inflammation and (B) PAS were determined based on the histological sections. Each result was expressed as the mean±S.D., n=4. ***, P<0.001. […]
The formalin-fixed lung sections stained with hematoxylin and eosin (H&E) were assigned a unit value for alveolar, peri-bronchiolar, and total inflammation by computing the means of three independent scores for three randomly selected fields. […] For evaluating the hyperplasia goblet cells, medium-sized airways were assessed in sections stained with periodic acid-Schiff (PAS) stain. Two reviewers independently and randomly scored 10 fields of each slide. […]

[1] = system: inflammatory cell recruitment into the airways; test: Differential cell counts in bronchoalveolar lavage fluid (BALF); type: in vivo, BALB/c mouse
From the text: as §1
FIG. 7 illustrates inhibitory effect of CMP on cell response in bronchoalveolar lavage fluid (BALF). BALF were collected from all experimental groups of mice. Cell populations were identified on air-dried cytocentrifuged smears after staining with Diff-Quuick stain. Differential cell counts were performed on a minimum of 300 cells to identify macrophages, eosinophils, segment or lymphocytes. Data represent one of three independent experiments. Each result was expressed as the mean±S.D., n=4. ***, P<0.001.
Mice were divided into six groups: 1) control (n=10), 2) mite crude extract allergen delivered intratracheally (mIT) alone (n=10), 3) CMP intranasal (eIN) alone (n=12), 4) preventive-treatment group (eIN+mIT; n=12), 5) therapeutic-treatment group (mIT+eIN; n=12), and 6) preventive- and therapeutic-treatment group (eIN+mIT+eIN; n=18) (FIG. 4). All groups receiving mIT were immunized with mite crude extract allergen on days 1 and 8 and then given mite crude extract allergen intratracheally on day 15. The cIN and eIN+mIT+eIN groups received cIN from days 1 to 22, the cIN+mIT group received eIN from days 1 to 15 (before mIT), and the mIT+eIN group received eIN from days 15 (post-mIT) to 22. All mice were sacrificed on day 23. The animal use protocol was reviewed and approved by Institutional Animal Care and Use Committee (IACUC Approval No: La-95279).
The trachea was exposed and cannulated. Two washings, each consisting of 1.0 ml of phosphate-buffered saline, were introduced into the lungs via the cannula and withdrawn to collect the cells. Bronchoalveolar lavage fluid (BALF) from each wash was placed in polypropylene tubes on ice. The collected BALF was then centrifuged at 300×g for 7 min at 4° C. […] Total cell numbers were counted on a hemocytometer, and 1−5×10^3 cells were spun onto glass microscope slides (cytospin, Shandon Scientific, Cheshire, UK). […] The number of cells recovered was calculated and expressed as absolute cell numbers.
To identify the extent of inflammatory cell recruitment into the airways under allergen challenge circumstance, the amount of inflammatory cell were measured in BALF. […]

human lung cancer H460 = test: Transwell migration assay, H460; type: cell-based; conditions: 12.5 μM CMP pretreatment 30 min, 18 hours
Experimental: FIG. 10 illustrates Tumor migration inhibition by CMP. A549, H460 and mouse colon cancer cells were incubated with CMP at 37° C. for 30 min before adding to the top chamber of transwell membranes in 24-well dishes at a density of 2×10^4 cells/well. Data represented the mean±S.E. of triplicate samples from a representative experiment. The experiment was repeated at least three times with similar results
Cancer cell inhibition by CMP was performed in a 24-well Transwell chamber consisting of a cell culture insert (6.4 mm diameter, 8-1 μm pore polyethylene tetraphtalate membrane, [Becton Dickinson]) set in each well of a 24-well companion plate (Becton Dickinson). Briefly, 3×10^4 cancer cells were suspended and pretreated with 5 and 12.5 μM CMP for 30 min in a total volume of 200 μL. Cell suspensions were inoculated into the upper chamber of an insert, 5% fetal bovine serum (FBS) in medium as a chemoattractant was added to the plate well in the bottom chamber, and incubated for 18 hours in a humidified incubator at 37° C. with 5% CO2. The non-migratory cells on the upper membrane surface were removed with a cotton swab, and the migratory cells attached to the lower membrane surface were fixed with 4% paraformaldehyde and stained with 0.2% crystal violet. The number of migrated cells was counted in four randomly selected high power fields under microscope. […]

In the case of NYRWRCKNQN (CMP), the “score of goblet cell hyperplasia compared with mIT group” value (goblet cell hyperplasia) was “lower score”, the “eosinophil count in BALF compared with mIT group” value ([1]; eIN+mIT group) was “lower” and the “eosinophil count in BALF compared with mIT group” value ([1]; eIN+mIT+eIN group) was “lower”. The “lymphocyte count in BALF compared with mIT group” value ([1]; eIN+mIT+eIN group) was “lower”, the “macrophage count in BALF compared with mIT group” value ([1]; eIN+mIT+eIN group) was “lower” and the “decrease of migration activity” value (human lung cancer H460) was 50%.
